One series concerns the target Cyclooxygenase. Put plainly: Enzyme assay, inhibition of cyclooxygenase (method closely based on Borgeat et al). Format: biochemical.
The test system of the next series is PBQ Writhing. Put plainly: Phenylbenzoquinone (PBQ) induced writhing (pain). Format: in vivo. Conditions: Mus musculus, po; p.o. 1 hour before PBQ 2.5 mg/kg i.p.; female mice. As for the experimental part: (§1) The compound of Example 1 was subjected to the following tests. Results are given in Table II as ED50 mg/kg upon oral administration. Results are also provided by way of comparison for the compound 3-methylamino-1-(3-trifluoromethylphenyl)-2-pyrazoline (Compound A) which is disclosed in European Specification 55 418.
Writhing was induced in groups of 5 female mice (20-25g) following the intraperitoneal injection of phenylbenzoquinone (PBQ; 2.5 mg/kg). Anti-nociceptive effects of drugs were assessed by observing the reduction in writhing responses 10-12½ min after PBQ injection. Drugs were administered orally in aqueous solution 1 hour before PBQ injection and drug effects were expressed as a percentage of control values obtained from animals receiving vehicle alone.
(In writhing tests, fewer writhes than in controls are read as antinociception.)

The nature of a further series: Toxicity: ulcerogenicity. Format: in vivo. The conditions noted are these: rat, doses in the range 50-100 mg/kg.
The test system of series [1] is Prostaglandin E2 concentrations in sponge exudates. The series can be described thus: Prostaglandin synthesis in carrageenin sponge inflammatory exudate. Format: in vivo. The conditions noted are these: Rattus norvegicus, po; male rats, sponges impregnated with 2% carrageenin, exudates collected 24 hours after implantation; read-out: ED50 (mg/kg p.o.) Prostaglandin Production (rat). The procedure:
as §1
(§2) Inflammatory exudates were collected 24 hours after the subcutaneous implantation in male rats (180-220g) of sterile polyester sponges impregnated with 2% carrageenin. Prostaglandin E2 concentrations in sponge exudates were measured by bioassay and total leucocyte numbers were estimated using counting chambers and phase contrast microscopy. Drugs were administered orally in aqueous solution to groups of five animals at the time of sponge implantation, 5-8 hours later and 3 hours before sponge removal. Results are expressed as a percentage of control values obtained from similar groups of animals receiving vehicle alone. ED50 values were calculated for active compounds. The full dose-response data for lead compounds were subjected to regression analysis and ED50 values with 95% confidence limits have been obtained.

Another series deals with Carrageenin Oedema. The series can be described thus: Carrageenin-induced hind paw oedema. Format: in vivo. Conditions: Rattus norvegicus, po; female rats, sub-plantar 2% carrageenin, swelling measured 1-4 hours after injection. As for the experimental part:
as §1
Oedema was induced by the sub-plantar injection of 2% carrageenin (0.1 ml) in the hind paws of female rats (100-i30g). Swelling was measured 1-4 hours following carrageenin injection using a micrometer gauge. Drugs in aqueous solution were administered orally to groups of five rats at the time of carrageenin injection. Mean swelling was expressed as a percentage of control values obtained from similar groups of animals receiving vehicle alone.
A general note: Carrageenan injected into the paw causes an acute inflammation.

The subject of a further series is total leucocyte numbers. Put plainly: Leucocyte accumulation in carrageenin sponge inflammatory exudate. Format: in vivo. Conditions: Rattus norvegicus, po, male rats, sponges impregnated with 2% carrageenin, exudates collected 24 hours after implantation, read-out: ED50 (mg/kg p.o.) Leucocyte Migration (rat). The procedure:
as §1, §2

Counter-ions that a name gives are not always drawn.

Broadly, the IC50 is the concentration at which inhibition is half-maximal. Read a low IC50 as greater potency. Take `C#CCNC1=NN(c2cccc(SC)c2)CC1` [Example 7, 1-(3-Methylthiophenyl)-3-(2-propynylamino)-2-pyrazoline hydrochloride]: the IC50 on Cyclooxygenase is > 1 µM.
On to `CSc1cccc(N2CCC(N)=N2)c1` [Example 1, 3-amino-1-(3-methylthiophenyl)-2-pyrazoline], for which the ED50 was 15 mg/kg in the series on PBQ Writhing, 14 mg/kg in series [1], 20 mg/kg in the series on Carrageenin Oedema and 6.5 mg/kg in the series with total leucocyte numbers. Also, the ulcerogenic entry in “Toxicity: ulcerogenicity” is listed as “not to be ulcerogenic”. For the same compound, half-maximal inhibition against Cyclooxygenase (IC50) required 4.7 µM.
With `CNC1=NN(c2cccc(SC)c2)CC1` [Example 3, 3-methylamino-1-(3-methylthiophenyl)-2-pyrazoline hydrobromide], 10 µM corresponded to half-maximal inhibition against Cyclooxygenase (IC50).
On to `CNC1=NN(c2cccc(C(F)(F)F)c2)CC1` [Compound A, 3-methylamino-1-(3-trifluoromethylphenyl)-2-pyrazoline, reference compound], for which the ED50 with PBQ Writhing was 20 mg/kg; in series [1], 20 mg/kg; in the series on Carrageenin Oedema, 26 mg/kg; in the series with total leucocyte numbers it was 20 mg/kg.

Values taken from patent publication EP0119449A1, “Aminopyrazoline derivatives” (THE WELLCOME FOUNDATION LIMITED, priority 1983, dated 1984).
